In US8338422B2, “Indolin-2-ones and aza-indolin-2-ones” (Janssen Pharmaceutica NV, priority 2007, dated 2012):

Legend:
[1] = target: PLK4 (h) (Homo sapiens, UniProt O00444); test: PLK-4 human kinase assay (SPA); type: biochemical; conditions: read-out: PLK4 pIC50 (converted)
How it was run: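 Radiometric readout: 33P-labelled peptide captured on streptavidin SPA beads after EDTA stop, imaged by Leadseeker. Reaction ran 60 min at room temperature in Hepes pH 8.0 buffer. It contained 1 μM ATP with 2 nM [γ-33P]ATP, 10 μM biotinylated peptide and PLK4 (h) at 19 μg/ml.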

[2] = target: AuroraB (h) (Homo sapiens, UniProt Q96GD4); test: Aurora-B human kinase assay (SPA); type: biochemical; conditions: read-out: AuroraB pIC50 (converted)
Sequence of AuroraB (h) (Q96GD4 whole entry): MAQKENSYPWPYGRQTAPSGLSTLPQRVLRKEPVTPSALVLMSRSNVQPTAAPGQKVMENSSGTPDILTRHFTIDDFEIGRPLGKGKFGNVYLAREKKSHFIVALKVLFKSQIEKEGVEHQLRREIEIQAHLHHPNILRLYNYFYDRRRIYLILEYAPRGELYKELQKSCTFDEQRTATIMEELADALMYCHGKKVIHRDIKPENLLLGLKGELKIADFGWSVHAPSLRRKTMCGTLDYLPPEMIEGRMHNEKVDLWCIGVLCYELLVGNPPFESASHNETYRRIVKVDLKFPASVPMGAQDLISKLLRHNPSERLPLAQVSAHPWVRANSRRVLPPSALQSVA
How it was run: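 Scintillation proximity assay: AuroraB (h) at 0.5 μg/ml with 3 μM biotinylated peptide, 0.5 μM ATP and 2.2 nM [γ-33P]ATP in 60 mM Hepes pH 7.5, 3 mM MgCl2, 3 mM MnCl2, 2 mM DTT. 60 min at room temperature, EDTA stop, streptavidin PVT beads read on Leadseeker.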

[3] = tested on: A2780; test: Cellular proliferation assay (Alamar blue), A2780; type: cell-based; conditions: Homo sapiens, A2780, 72 h, A2780 cells, 72 hours with compound, 10% FCS, read-out: pIC50 A2780 (converted)
How it was run: (§1)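 Proliferation was assessed over 72 h of compound treatment, following 24 h of seeding without compound, under 10% FCS, 37° C. and 5% CO2. Fluorescent resazurin product was measured and compared with control cells.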

[4] = tested on: SKOV3; test: Cellular proliferation assay (Alamar blue), SKOV3; type: cell-based; conditions: Homo sapiens, SK-OV-3, SKOV3 cells, 72 hours with compound, 10% FCS, read-out: pIC50 SKOV3 (converted)
Description: (§2) […] functional properties of these compounds was tested in cellular proliferation assays on a panel of different cell lines in the presence of 10% FCS serum (37° C. and 5% (v/v) CO2). In a first step these cells were seeded and incubated for 24 hours in the absence of compound. In the second step the cells were incubated for 72 hours with the compounds to be tested for 72 hours. The viable cell number was finally assessed in a standard Alamar blue cell viability assay.
(§3) The viable cell number was assessed by incubation for either 4 h (HCT-116, H1299, H460) 6 h (SKOV3, HT29, U87-MG, Colo205) or 24 h (A2780, PC3, MDA-MB-231, A549, MCF-7) with Alamar blue (Resazurin 9 μg/ml, K-Ferrocyanide 90 μM K-Ferricyanide 90 μM) and the converted fluorescent product was quantified on a fluorescent plate readed (544 nm/590 nm). Effect of the compounds is calculated as of on control cells.

[5] = tested on: HT-29; test: Cellular proliferation assay (Alamar blue), HT-29; type: cell-based; conditions: Homo sapiens, HT-29 cells, 72 hours with compound, 10% FCS, read-out: pIC50 HT-29 (converted)
Description: as §2, §3

[6] = tested on: HCT-116; test: Cellular proliferation assay (Alamar blue), HCT-116; type: cell-based; conditions: Homo sapiens, HCT-116, 72 h, HCT-116 cells, 72 hours with compound, 10% FCS, read-out: pIC50 HCT-116 (converted)
How it was run: as §1

[7] = tested on: Colo205; test: Cellular proliferation assay (Alamar blue), Colo205; type: cell-based; conditions: Homo sapiens, COLO 205, Colo205 cells, 72 hours with compound, 10% FCS, read-out: pIC50 Colo205 (converted)
Description: as §2, §3

[8] = tested on: A549; test: Cellular proliferation assay (Alamar blue), A549; type: cell-based; conditions: Homo sapiens, A549 cells, 72 hours with compound, 10% FCS, read-out: pIC50 A549 (converted)
Description: as §2, §3

[9] = tested on: H460; test: Cellular proliferation assay (Alamar blue), H460; type: cell-based; conditions: Homo sapiens, NCI-H460, H460 cells, 72 hours with compound, 10% FCS, read-out: pIC50 H460 (converted)
Description: as §2, §3

[10] = tested on: MDA/MB231; test: Cellular proliferation assay (Alamar blue), MDA/MB231; type: cell-based; conditions: Homo sapiens, MDA-MB-231, 72 h, MDA/MB231 cells, 72 hours with compound, 10% FCS, read-out: pIC50 MDA/MB231 (converted)
How it was run: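 Cells in 10% FCS were seeded and left 24 h without compound, then treated for 72 h at 37° C. Viability read with Alamar blue (resazurin 9 μg/ml, ferro-/ferricyanide 90 μM each), incubated 4 h for H460 and 24 h for MDA-MB-231; fluorescence 544/590 nm, effect relative to control cells.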

[11] = tested on: MCF-7; test: Cellular proliferation assay (Alamar blue), MCF-7; type: cell-based; conditions: Homo sapiens, MCF7, MCF-7 cells, 72 hours with compound, 10% FCS, read-out: pIC50 MCF-7 (converted)
Description: as §2, §3

[12] = tested on: DU-145; test: Cellular proliferation assay (Alamar blue), DU-145; type: cell-based; conditions: Homo sapiens, DU-145 cells, 72 hours with compound, 10% FCS, read-out: pIC50 DU-145 (converted)
Description: as §2, §3

[13] = tested on: A431; test: Cellular proliferation assay (Alamar blue), A431; type: cell-based; conditions: Homo sapiens, A-431, A431 cells, 72 hours with compound, 10% FCS, read-out: pIC50 A431 (converted)
Description: as §2, §3

[14] = tested on: U87MG; test: Cellular proliferation assay (Alamar blue), U87MG; type: cell-based; conditions: Homo sapiens, U-87 MG, 72 h, U87MG cells, 72 hours with compound, 10% FCS, read-out: pIC50 U87MG (converted)
How it was run: as §1

[15] = tested on: PC-3; test: Cellular proliferation assay (Alamar blue), PC-3; type: cell-based; conditions: Homo sapiens, PC-3, 72 h, PC-3 cells, 72 hours with compound, 10% FCS, read-out: pIC50 PC-3 (converted)
How it was run: as §1

[16] = tested on: SK-N-SH; test: Cellular proliferation assay (Alamar blue), SK-N-SH; type: cell-based; conditions: Homo sapiens, SK-N-SH cells, 72 hours with compound, 10% FCS, read-out: pIC50 SK-N-SH (converted)
Description: as §2, §3

[17] = tested on: H1299; test: Cellular proliferation assay (Alamar blue), H1299; type: cell-based; conditions: Homo sapiens, NCI-H1299, 72 h, H1299 cells, 72 hours with compound, 10% FCS, read-out: pIC50 H1299 (converted)
How it was run: as §1

[18] = target: GSK3β (h) (Homo sapiens, UniProt P49841); test: GSK-3β human kinase assay (SPA); type: biochemical; conditions: read-out: GSK3B pIC50 (converted)
Sequence of GSK3β (h) (P49841 whole entry): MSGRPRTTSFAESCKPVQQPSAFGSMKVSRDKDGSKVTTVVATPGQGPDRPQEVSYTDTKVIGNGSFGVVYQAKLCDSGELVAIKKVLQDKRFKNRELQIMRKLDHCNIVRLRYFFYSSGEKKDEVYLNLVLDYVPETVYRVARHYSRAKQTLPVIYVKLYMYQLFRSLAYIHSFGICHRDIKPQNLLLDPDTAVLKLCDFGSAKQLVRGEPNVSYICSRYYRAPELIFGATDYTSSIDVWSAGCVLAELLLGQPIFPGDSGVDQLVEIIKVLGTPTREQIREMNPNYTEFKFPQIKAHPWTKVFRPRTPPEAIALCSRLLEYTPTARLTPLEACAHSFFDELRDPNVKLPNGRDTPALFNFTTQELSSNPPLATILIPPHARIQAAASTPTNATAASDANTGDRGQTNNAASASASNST
How it was run: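 Radiometric SPA read-out: after EDTA stop, biotinylated 33P-labelled peptide bound streptavidin PVT beads and was imaged on Leadseeker. Reaction: 60 min, room temperature, GSK3β (h) at 1 μg/ml, 1 μM substrate peptide, 1 μM ATP with 2 nM [γ-33P]ATP, Tris pH 7.4/MgCl2/DTT buffer.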

[19] = target: CDK1/CyclinB (h) (Homo sapiens, UniProt P06493); test: CDK1/CyclinB human kinase assay (FRET); type: biochemical; conditions: read-out: CDK1 pIC50 (converted)
Sequence of CDK1/CyclinB (h) (P06493 whole entry): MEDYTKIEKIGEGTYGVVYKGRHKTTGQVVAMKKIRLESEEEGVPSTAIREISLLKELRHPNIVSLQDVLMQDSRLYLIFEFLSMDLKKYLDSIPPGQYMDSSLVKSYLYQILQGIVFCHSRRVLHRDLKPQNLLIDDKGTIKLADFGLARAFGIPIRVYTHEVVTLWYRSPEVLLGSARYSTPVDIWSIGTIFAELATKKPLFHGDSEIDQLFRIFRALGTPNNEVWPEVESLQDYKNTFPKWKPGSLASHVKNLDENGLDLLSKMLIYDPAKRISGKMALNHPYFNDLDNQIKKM
Sequence of CDK1/CyclinB (h) (P14635 whole entry partner): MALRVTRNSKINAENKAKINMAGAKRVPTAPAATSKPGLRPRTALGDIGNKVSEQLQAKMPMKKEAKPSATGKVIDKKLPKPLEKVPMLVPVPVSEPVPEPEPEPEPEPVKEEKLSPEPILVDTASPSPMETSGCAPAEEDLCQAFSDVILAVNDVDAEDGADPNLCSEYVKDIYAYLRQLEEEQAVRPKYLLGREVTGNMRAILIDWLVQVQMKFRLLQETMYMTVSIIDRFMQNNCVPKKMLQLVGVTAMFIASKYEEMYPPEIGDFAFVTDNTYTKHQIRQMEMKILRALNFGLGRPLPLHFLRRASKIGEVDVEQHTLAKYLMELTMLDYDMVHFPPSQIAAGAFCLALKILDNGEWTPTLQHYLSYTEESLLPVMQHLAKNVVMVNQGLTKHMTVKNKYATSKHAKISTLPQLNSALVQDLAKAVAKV
How it was run: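 Z'-LYTE FRET format: 0.2 μg/ml enzyme with 2 μM Ser/Thr peptide 12 and 10 μM ATP in 50 mM Hepes pH 7.5, 10 mM MgCl2, 1 mM EGTA, 0.01% Brij-35, 60 min at room temperature. Protease development 60 min; coumarin/fluorescein emission ratio (460/538 nm, excitation 390 nm) reports phosphorylation.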

Sequence of PLK4 (h) (O00444 whole entry): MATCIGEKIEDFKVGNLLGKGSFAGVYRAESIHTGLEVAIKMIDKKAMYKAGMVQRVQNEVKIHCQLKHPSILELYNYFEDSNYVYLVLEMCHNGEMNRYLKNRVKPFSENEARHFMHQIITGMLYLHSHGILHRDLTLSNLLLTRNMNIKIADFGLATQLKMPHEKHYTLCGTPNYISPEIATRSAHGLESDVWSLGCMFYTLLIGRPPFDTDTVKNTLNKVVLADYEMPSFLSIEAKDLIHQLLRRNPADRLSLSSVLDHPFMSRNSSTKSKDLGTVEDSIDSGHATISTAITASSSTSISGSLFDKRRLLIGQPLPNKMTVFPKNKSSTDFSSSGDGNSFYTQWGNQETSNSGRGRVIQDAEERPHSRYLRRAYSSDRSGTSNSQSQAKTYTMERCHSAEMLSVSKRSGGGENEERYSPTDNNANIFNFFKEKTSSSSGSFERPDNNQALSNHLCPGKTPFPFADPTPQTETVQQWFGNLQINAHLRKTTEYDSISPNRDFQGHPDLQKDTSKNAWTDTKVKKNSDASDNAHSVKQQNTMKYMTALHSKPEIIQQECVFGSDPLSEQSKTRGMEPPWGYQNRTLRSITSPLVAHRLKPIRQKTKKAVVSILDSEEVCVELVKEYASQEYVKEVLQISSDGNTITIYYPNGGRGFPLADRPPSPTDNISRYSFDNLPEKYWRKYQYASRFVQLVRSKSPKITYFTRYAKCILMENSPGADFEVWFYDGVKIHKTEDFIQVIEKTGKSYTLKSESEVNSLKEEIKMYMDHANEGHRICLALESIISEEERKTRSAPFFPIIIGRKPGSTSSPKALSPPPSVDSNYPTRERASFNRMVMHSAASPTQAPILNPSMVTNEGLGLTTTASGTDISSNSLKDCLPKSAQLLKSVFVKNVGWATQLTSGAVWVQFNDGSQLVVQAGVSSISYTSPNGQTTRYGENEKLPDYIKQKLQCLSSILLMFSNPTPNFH

O=C1Nc2ncnc3c2C1=CNc1cc(ccc1Cl)OCCCCC(=O)N1CCN3CC1 (mixture of isomers) [Compound 13]
IC50 [1]: > 10 µM | IC50 [2]: > 10 µM | IC50 [3]: > 10 µM | IC50 [4]: > 10 µM | IC50 [5]: > 10 µM | IC50 [6]: > 10 µM | IC50 [7]: > 10 µM | IC50 [8]: > 10 µM | IC50 [9]: > 10 µM | IC50 [10]: > 10 µM | IC50 [11]: > 10 µM | IC50 [12]: > 10 µM | IC50 [13]: > 10 µM | IC50 [14]: > 10 µM | IC50 [15]: > 10 µM | IC50 [16]: > 10 µM

O=C1Nc2ncnc3c2C1=CNc1ccc(c(Cl)c1)OCCCCCC(=O)N1CCN3CC1 (mixture of isomers) [Compound 14]
IC50 [1]: > 10 µM | IC50 [2]: > 10 µM | IC50 [4]: > 10 µM | IC50 [5]: > 10 µM | IC50 [6]: > 10 µM | IC50 [7]: > 10 µM | IC50 [17]: > 10 µM | IC50 [8]: > 10 µM | IC50 [9]: > 10 µM | IC50 [10]: > 10 µM | IC50 [11]: > 10 µM | IC50 [12]: > 10 µM | IC50 [13]: > 10 µM | IC50 [15]: > 10 µM | IC50 [16]: > 10 µM

O=C1Nc2ncnc3c2C1=CNc1ccc(cc1)S(=O)(=O)NCCCCC(=O)N1CCN3CC1 (mixture of isomers) [Compound 15]
IC50 [1]: 5.5 µM | IC50 [2]: > 10 µM | IC50 [3]: > 10 µM | IC50 [4]: > 10 µM | IC50 [5]: > 10 µM | IC50 [6]: > 10 µM | IC50 [7]: > 10 µM | IC50 [8]: > 10 µM | IC50 [9]: > 10 µM | IC50 [10]: > 10 µM | IC50 [11]: > 10 µM | IC50 [12]: > 10 µM | IC50 [13]: > 10 µM | IC50 [14]: > 10 µM | IC50 [15]: > 10 µM | IC50 [16]: > 10 µM

CN1CCCC(=O)NCC#Cc2cccc3c2/C(=C/Nc2cccc(c2)S(=O)(=O)N(C)CC1=O)C(=O)N3 [Compound 3]
IC50 [1]: 3.16 µM | IC50 [2]: > 10 µM | IC50 [18]: 1.86 µM | IC50 [19]: > 10 µM | melting point: > 240 °C

CN1CC(=O)N(CCN2CCOCC2)CCC(=O)NCC#Cc2cccc3c2/C(=C/Nc2cccc(c2)S1(=O)=O)C(=O)N3 [Compound 5]
IC50 [1]: 4.17 µM | IC50 [2]: 8.32 µM | IC50 [18]: 8.13 µM | IC50 [19]: > 10 µM | melting point: > 240 °C

COc1ccc2cc1OCCCC(=O)N1CCN(CC1)c1ncnc3c1/C(=C/N2)C(=O)N3 [Compound 17]
IC50 [1]: 1.62 µM | IC50 [2]: > 10 µM | IC50 [3]: > 10 µM | IC50 [4]: 4.68 µM | IC50 [5]: > 10 µM | IC50 [6]: > 10 µM | IC50 [7]: > 10 µM | IC50 [8]: 3.47 µM | IC50 [9]: > 10 µM | IC50 [10]: > 10 µM | IC50 [11]: 8.13 µM | IC50 [12]: > 10 µM | IC50 [13]: > 10 µM | IC50 [14]: 7.76 µM | IC50 [15]: 10.7 µM | IC50 [16]: 3.31 µM

O=C1Nc2ncnc3c2/C1=C/Nc1ccc(c(Cl)c1)OCCCCCCC(=O)N1CCN3CC1 [Compound 20]
IC50 [2]: > 10 µM | IC50 [4]: > 10 µM | IC50 [5]: > 10 µM | IC50 [6]: > 10 µM | IC50 [7]: 7.76 µM | IC50 [17]: > 10 µM | IC50 [8]: > 10 µM | IC50 [9]: > 10 µM | IC50 [10]: > 10 µM | IC50 [11]: > 10 µM | IC50 [12]: > 10 µM | IC50 [13]: > 10 µM | IC50 [15]: > 10 µM | IC50 [16]: 6.61 µM

O=C1Nc2ncnc3c2/C1=C/Nc1ccc(c(F)c1)OCCCCCC(=O)N1CCN3CC1 [Compound 22]
IC50 [1]: > 10 µM | IC50 [2]: > 10 µM | IC50 [4]: > 10 µM | IC50 [5]: > 10 µM | IC50 [6]: > 10 µM | IC50 [7]: > 10 µM | IC50 [17]: > 10 µM | IC50 [8]: > 10 µM | IC50 [9]: > 10 µM | IC50 [10]: > 10 µM | IC50 [11]: > 10 µM | IC50 [12]: > 10 µM | IC50 [13]: > 10 µM | IC50 [15]: > 10 µM | IC50 [16]: > 10 µM

CN1CCCCCC(=O)N2CCN(CC2)c2ncnc3c2/C(=C/Nc2cccc(c2)C1)C(=O)N3 [Compound 24]
IC50 [1]: 1.51 µM | IC50 [2]: > 10 µM | IC50 [3]: > 10 µM | IC50 [4]: > 10 µM | IC50 [5]: > 10 µM | IC50 [6]: > 10 µM | IC50 [7]: > 10 µM | IC50 [8]: > 10 µM | IC50 [9]: > 10 µM | IC50 [10]: > 10 µM | IC50 [11]: > 10 µM | IC50 [12]: > 10 µM | IC50 [13]: > 10 µM | IC50 [14]: > 10 µM | IC50 [15]: > 10 µM | IC50 [16]: > 10 µM
